# Data reported in patent US20060183801A1, “Method of preventing or treating breast, prostate and/or cervical cancer with n, n-dimethylglycine” (FoodScience Corporation, priority 2002, published 2006).
# Legend:
# [1] = system: IL-1 secretion in peripheral blood mononuclear cells; assay: Cytokine bioassay: IL-1 secretion by stimulated PBMC (A375.S2 responder cells); assay type: cell-based; conditions: 100 mM DMG
# Method: (§1) Heparinized peripheral blood from healthy control volunteers was collected and layered onto room temperature (RT) polysucrose sodium diatriazoate (Histopaque 1077, Sigma Chemical Co.) in 15-ml conical tubes. These were centrifuged at 400×g for 30 minutes. Mononuclear cells were collected and washed in 10-ml phosphate buffered saline (PBS). Following a 10 min centrifugation and 250×g, the PBS were decanted and the wash step repeated. Cells were counted in a hemocytometer and adjusted to 2×10^6 cells/ml. These cells were later used in cytokine bioassays, Co-culture and in flow cytometry. Modulation of inflammatory cytokine production in Peripheral Blood Mononuclear Cells (PBMC) by DMG, was determined by the use of cytokine bioassays. Supernatants of DMG treated and untreated PBMC which produce cytokines (producers) on stimulation with mitogens (PMA and/or lonomycin), were added to responder cell lines specific for the respective cytokine. Proliferation or inhibition of these indicator cells signal the extent of cytokine secretion by the producer cell lines. The optimum cell number/well for each cell line was determined after a titration assay. PBMC were plated on 48 well plates in a concentration of 5×10^6 cells/well. […] Samples are read at 4 hours using a BIO-RAD benchmark microplate reader at 490 nm. […]
# A375.S2 melanoma cells [2] = assay: Co-culture proliferation assay: DMG treated U-937 with A375.S2 melanoma cells; assay type: cell-based, human; conditions: DMG treated U-937 in co-culture
# Method: (§2) A proliferation assay was designed to determine the ability of DMG treated cytokine producing cells to inhibit growth of melanoma cell lines, breast cancer cell lines, a prostate cancer cell line, and cervical cancer cell lines. The cytokine bioassays utilizing cell proliferation assays were performed to assess modulation of inflammatory cytokine production by DMG. Cytokine bioassays are well known in the art. (Thorpe R: Developments in Biological Standardization 1999, 97:61-71 and Mire-Sluis AR: Journal of Immunological Methods 1995, 187 (2):191-199)
# (§3) The cell lines and murine B16 as indicator cells were used to observe the modulating effects of DMG. The optimum cell number per well for each cell line was determined after titration assay. Stimulated and unstimulated cytokine producing cell lines (Jurkat e6-1, EL-4, MG-63 and U-937) were treated with DMG for 24 hours prior to culture with cancer cell lines. […]
# (§4) A proliferation assay was designed to determine the ability of DMG treated cytokine producing cells to inhibit growth of human breast cancer cell lines MCF-7, BT-20 and T47D, human prostrate cancer PC-3 cell line, human cervical cancer Caski and SiHa cell lines and melanoma cell lines. […] The optimum cell number/well for each cell line was determined after a titration assay. […]
# [3] = system: TNF alpha secretion in peripheral blood mononuclear cells; assay: Cytokine bioassay: TNF-α secretion by stimulated PBMC (L-929 indicator cells); assay type: cell-based; conditions: 100 mM DMG, PBMC stimulated with PMA and Ionomycin; L-929 indicator cells (FIG. 7)
# Method: as §1
# Hs 294T melanoma cells = assay: Co-culture proliferation assay: DMG treated PBMC with Hs 294T melanoma cells; assay type: cell-based; conditions: Homo sapiens; PBMC treated with 100 mM DMG, Hs 294T co-culture (FIG. 14); read-out: inhibitory effect over controls (melanoma inhibition by PBMC)
# Method: (§5) Heparinized peripheral blood from healthy control volunteers was collected and layered onto room temperature (RT) polysucrose sodium diatriazoate (Histopaque 1077, Sigma Chemical Co.) in 15-ml conical tubes. These were centrifuged at 400×g for 30 minutes. Mononuclear cells were collected and washed in 10-ml phosphate buffered saline (PBS). Following a 10 min centrifugation and 250×g, the PBS were decanted and the wash step repeated. Cells were counted in a hemocytometer and adjusted to 2×10^6 cells/ml. These cells were later used in cytokine bioassays, Co-culture and in flow cytometry.
# (§6) A proliferation assay was designed to determine the ability of DMG treated cytokine producing cells to inhibit growth of human breast cancer cell lines MCF-7, BT-20 and T47D, human prostrate cancer PC-3 cell line, human cervical cancer Caski and SiHa cell lines and melanoma cell lines. Three melanoma cell lines, human A375.S2 and Hs 294T, and murine B16 as indicator cells were used to observe the modulating effects of DMG. The optimum cell number/well for each cell line was determined after a titration assay. Stimulated and unstimulated cytokine producing cell lines (Jurkat E6-1, EL-4, MG-63 and U-937) were treated with DMG for 24 hr prior to culture with melanoma cells. Similarly, PBMC were also treated with DMG and cultured with melanoma cells. […]
# [4] = system: IL-2 secretion in EL-4 cell line; assay: Cytokine bioassay: IL-2 secretion by EL-4 cells (CTLL-2 responder cells); assay type: cell-based, mouse
# Method: (§7) Cytokine bioassays utilizing cell proliferation assays were performed to assess modulation of inflammatory cytokine production by DMG (House-Development in biological Standardization 1999 (97) 13-19). Supernatants from cytokine producing cell lines (untreated control and DMG treated), were added to responder cell lines specific for that cytokine. Proliferation or inhibition of these responder/indicator cells signal the extent of cytokine secreted by the producer cell lines. The optimum cell number/well for each cell line was determined after a titration assay. All suspension producer cell lines such at THP-1, Jurkat E6-1, EL-4 and U-937 were plated on 48 well plates in a concentration of 5×10^6 cells/well, where as adherent producer cells such as LS174T were plated at a concentration of 5×10^5 cells/well. Suspension responder cell lines (CTLL-2 and 7TD-1) were used at a concentration of 1×10^6 cells/well in a 96 well plate, whereas the adherent responder cell lines (L-929 and A375.S2) were plated at a concentration of 3×10^4 cells/well and 4×10^4 cells/well respectively. THP-1 cells, which secrete Tumor Necrosis Factor-alpha (TNF-α), when stimulated with lipopolysaccharide (LPS), were treated with increasing concentrations of DMG for a period of 24 hours at 37° C. in a humidified 5% CO2 incubator. […] Samples are read at 4 hours using a BIO-RAD benchmark microplate reader at 490 nm. […]
# melanoma cells [5] = assay: Co-culture proliferation assay: DMG treated stimulated Jurkat E6-1 with melanoma cells; assay type: cell-based; conditions: PMA/Ionomycin stimulated Jurkat E6-1 in co-culture
# Method: as §2, §3, §4
# [6] = system: TNF-α secretion in THP-1 cell line; assay: Cytokine bioassay: TNF-α secretion by LPS-stimulated THP-1 cells (L-929 indicator cells); assay type: cell-based; conditions: 100 mM DMG, 24 h, measured by L-929 cells (FIG. 2)
# Method: as §7
# [7] = system: MCF-7 breast cancer cells; assay: Co-culture proliferation assay: DMG treated Jurkat E6-1 with MCF-7 breast cancer cells; assay type: cell-based, human; conditions: Jurkat E6-1 treated with DMG 24 hours prior to culture (FIG. 17)
# Method: as §2, §3, §4
# [8] = system: prostate adenocarcinoma cell line PC-3; assay: Co-culture proliferation assay: DMG treated stimulated PBMC with PC-3 prostate cells; assay type: cell-based, human; conditions: DMG treated stimulated PBMC in co-culture (FIG. 26)
# Method: as §5, §6
# [9] = system: T47D breast cancer cell line; assay: Co-culture proliferation assay: DMG treated stimulated PBMC with T47D cells; assay type: cell-based, human; conditions: DMG treated stimulated PBMC in co-culture (FIG. 20)
# Method: as §5, §6
# [10] = system: IL-2 secretion in Jurkat E6-1 cell line; assay: Cytokine bioassay: IL-2 secretion by Jurkat E6-1 cells (CTLL-2 responder cells); assay type: cell-based, human
# Method: as §7
# [11] = system: IL-6 secretion in LS 174T cell line; assay: Cytokine bioassay: IL-6 secretion by LS 174T cells (7TD1 responder cells); assay type: cell-based; conditions: 100 mM DMG, LS 174T (FIG. 6)
# Method: as §7
# [12] = system: IL-2 secretion in peripheral blood mononuclear cells; assay: Cytokine bioassay: IL-2 secretion by stimulated PBMC (HT-2 responder cells); assay type: cell-based; conditions: 100 mM DMG
# Method: as §1
# melanoma cells [13] = assay: Co-culture proliferation assay: DMG treated stimulated MG-63 with melanoma cells; assay type: cell-based; conditions: DMG treated stimulated MG-63 (produces IFN-β) in co-culture
# Method: as §2, §3, §4
# [14] = system: IL-1 secretion in U-937 cell line; assay: Cytokine bioassay: IL-1 secretion by U-937 cells (A375.S2 indicator cells); assay type: cell-based; conditions: detected by decreased proliferation of A375.S2 (FIG. 3)
# Method: as §7
# [15] = system: T47D breast cancer cell line; assay: Co-culture proliferation assay: DMG treated Jurkat E6-1 with T47D breast cancer cells; assay type: cell-based, human; conditions: Jurkat E6-1 treated with DMG 24 hours prior to culture (FIG. 18)
# Method: as §2, §3, §4
# [16] = system: Caski human cervical carcinoma cells; assay: Co-culture proliferation assay: DMG treated Jurkat E6-1 with Caski cervical cells; assay type: cell-based; conditions: Jurkat E6-1 treated with DMG 24 hours prior to culture (FIG. 22-23)
# Method: as §2, §3, §4
# A375.S2 melanoma cells [17] = assay: Co-culture proliferation assay: DMG treated PBMC with A375.S2 melanoma cells; assay type: cell-based, human
# Method: as §5, §6
# [18] = system: SiHa human cervical carcinoma cells; assay: Co-culture proliferation assay: DMG treated Jurkat E6-1 with SiHa cervical cells; assay type: cell-based; conditions: Jurkat E6-1 treated with DMG 24 hours prior to culture (FIG. 24-25)
# Method: as §2, §3, §4
# [19] = system: MCF-7 breast cancer cell line; assay: Co-culture proliferation assay: DMG treated stimulated PBMC with MCF-7 cells; assay type: cell-based, human; conditions: DMG treated stimulated PBMC in co-culture (FIG. 19)
# Method: as §5, §6
smiles,measurement,setting,value
"CN(C)CC(=O)O [DMG, N,N-dimethylglycine]",enhancement of IL-1 expression levels,[1],8%
same,decrease in the proliferation of A375.S2 cells,A375.S2 melanoma cells [2],30%
same,increase of TNF-α over stimulated baseline controls,[3],9%
same,inhibition at 100000 µM,Hs 294T melanoma cells,13%
same,increase of IL-2 secretion,"[4]; 10 mM DMG, EL-4 (FIG. 5)",2.5%
same,increase of IL-2 levels (increase in proliferation of CTLL-2),"[4]; 100 mM DMG, EL-4 supernatant (FIG. 5)",6%
same,increased inhibition of melanoma cells over baseline stimulated control,melanoma cells [5],8%
same,increase of TNF-α levels over baseline control levels,[6],7%
same,inhibition of MCF-7 cells,[7],dose dependent effect
same,inhibition of PC-3 cell line,[8],dose response inhibition
same,inhibition of T47D cell line,[9],dose response inhibition
same,increase of IL-2 secretion,"[10]; 10 mM DMG, Jurkat E6-1 (FIG. 4)",3%
same,increase of IL-2 levels (increase in proliferation of CTLL-2),"[10]; 100 mM DMG, Jurkat E6-1 supernatant (FIG. 4)",10%
same,increase of IL-6 production levels,[11],7%
same,enhancement of IL-2 expression levels,[12],10%
same,melanoma inhibition,melanoma cells [13],increased level of melanoma inhibition
same,increase of IL-1 secretion,[14]; 10 mM DMG,4.5%
same,increase of IL-1 secretion,[14]; 100 mM DMG,6.5%
same,inhibition of T47D cells,[15],typical dose dependent effect
same,inhibition of Caski cell line,[16],dose response inhibition
same,proliferation decrease in melanoma cell growth over stimulated baseline control,"A375.S2 melanoma cells [17]; PBMC treated with 100 mM DMG, A375.S2 co-culture",17%
same,"A375.S2 proliferation, dose dependence",A375.S2 melanoma cells [17]; PBMC treated with increasing concentrations of DMG,Significant dose dependent reductions
same,inhibition of SiHa cell line,[18],dose response inhibition
same,inhibition of MCF-7 cell line,[19],dose response inhibition
